The IC50 is the concentration needed to halve the response being measured.

Peptide text beside a SMILES is read from it.

The source of these data is PMC10815170, “Exploring the Blood Glucose-Lowering Potential of the Umami Peptides LADW and EEAEGT Derived from Tuna Skeletal Myosin: Perspectives from α-Glucosidase Inhibition and Starch Interaction” (Foods, 2024).

The conditions of data set [1]: sensory evaluation in previous work; ref [7]; cited from earlier work. From the text: The intestinal stability, non-toxicity, and absorbability of peptides were considered important indicators for identifying bioactive peptides. In our previous work, these peptides were also confirmed to be non-toxic by sensory evaluation, and the peptides LADW and […] were obtained by hydrolysis with three common enzymes (pepsin, trypsin, and chymotrypsin) in the GI tract. […] Therefore, the potential α-GIPs identified in this study were presumed to withstand hy ...

Data set [2] concerns the target T1, α-Glucosidase from Saccharomyces cerevisiae (Saccharomyces cerevisiae, UniProt P53341).
T1 construct: purchased Yuanye Bio-Technology Co., Ltd. (Shanghai, China)
Description: α-Glucosidase inhibitory activity (pNPG). Format: biochemical. Particulars: PBS pH 6.8, 37 °C, 405 nm; for α-glucosidase inhibitory rate: 10 mM peptide, pNPG, n = 3; for IC50: 15 min preincubation, pNPG 15 min, mean ± SD (n = 3), read-out: IC50 value, α-glucosidase inhibition. From the text: α-Glucosidase from Saccharomyces cerevisiae (activity ≥ 30 U/mg) and porcine bile salt (purity ≥ 60.0%) were obtained from Yuanye Bio-Technology Co., Ltd. (Shanghai, China). Pepsin (activity ≥ 800 U/mg), pancreatin (activity ≥ 4000 U/g), and amyloglucosidase (activity ≥ 10,000 U/g) were obtained from Shanghai Ryon Biological Technology Co., Ltd. The p-nitrobenzene-α-D-glucopyranoside (pNPG, purity ≥ 99.0%) was purchased from Sigma-Aldrich (Shanghai, China). Peptides LADW and EEAEGT (purity ≥ 98.0%) were synthesized by ALL PEPTIDE Biology Co., Ltd. (Hangzhou, China). All other chemicals and solvents were of analytical grade.
α-Glucosidase inhibitory activity was determined following the method of Zheng et al., with slight modifications. Briefly, 80.0 μL of phosphate-buffered saline (PBS, pH = 6.8), 20.0 μL of α-glucosidase (7 U/mL, dissolved in PBS), and 20.0 μL of the peptide (dissolved in PBS) were mixed and incubated at 37 °C for 15 min. Subsequently, 20.0 μL of pNPG (2.5 mM, dissolved in PBS) was added to the mixture, followed by another incubation at 37 °C for 15 min. To terminate the reaction, 60 μL of Na2CO3 (0.2 M, dissolved in PBS) was added, and the absorbance was measured at 405 nm using a SpectraMax M5 microplate reader (Molecular Devices, Sunnyvale, CA, USA). The α-glucosidase inhibitory rate (%) was determined using the following formula:α-glucosidase inhibitory rate (%) = [1 − (Asample − Asample blank)/(Acontrol − Acontrol blank)] × 100 where Asample and Asample blank were the absorbance values with and without α-glucosidase added, respectively; Acontrol and Acontrol blank were the absorbance values with and without peptide solution added, respectively, after replacing α-glucosidase solution with PBS solution. The above solution without addition was replaced by PBS solution.

On the set-up of data set [3]: method as in PMID 8001624. Particulars: clinical practice; ref [3]; cited from earlier work.
The conditions of data set [4]: sensory evaluation in previous work; ref [7]; cited from earlier work. The source says: Table 1 Prediction results of physicochemical properties and potential activity of peptides. | column: Umami Threshold (mg/mL)
The source holds these as a separate data set.

T1 sequence (P53341 whole entry): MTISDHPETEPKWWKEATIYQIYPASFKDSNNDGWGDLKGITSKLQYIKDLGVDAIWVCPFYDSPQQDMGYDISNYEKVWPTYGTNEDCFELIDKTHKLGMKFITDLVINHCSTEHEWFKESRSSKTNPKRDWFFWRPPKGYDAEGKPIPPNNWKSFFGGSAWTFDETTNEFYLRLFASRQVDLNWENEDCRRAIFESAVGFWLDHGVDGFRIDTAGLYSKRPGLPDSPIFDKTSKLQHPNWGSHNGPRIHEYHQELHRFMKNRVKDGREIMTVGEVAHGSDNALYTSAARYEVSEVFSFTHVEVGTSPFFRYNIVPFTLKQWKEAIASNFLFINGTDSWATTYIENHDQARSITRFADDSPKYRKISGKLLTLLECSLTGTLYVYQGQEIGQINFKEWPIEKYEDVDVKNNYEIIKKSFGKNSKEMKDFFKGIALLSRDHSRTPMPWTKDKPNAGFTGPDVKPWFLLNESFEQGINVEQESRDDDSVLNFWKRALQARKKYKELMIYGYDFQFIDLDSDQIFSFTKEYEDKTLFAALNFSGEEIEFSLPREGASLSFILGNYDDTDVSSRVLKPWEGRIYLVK

`C[C@H](NC(=O)[C@H](CCC(=O)O)NC(=O)[C@@H](N)CCC(=O)O)C(=O)N[C@@H](CCC(=O)O)C(=O)NCC(=O)N[C@H](C(=O)O)[C@@H](C)O` [EEAEGT] (H-EEAEGT-OH): the Toxicity entry in data set [1] was “non-toxic”. Moreover, in data set [2], the α-glucosidase inhibitory rate is on record as 96.44% and the IC50 was 6.46 ± 0.22 mM.

Regarding `CC(C)C[C@H](N)C(=O)N[C@@H](C)C(=O)N[C@@H](CC(=O)O)C(=O)N[C@@H](Cc1c[nH]c2ccccc12)C(=O)O` [LADW] (H-LADW-OH), the Toxicity result in data set [1] is listed as “non-toxic”. Further, in data set [2], the α-glucosidase inhibitory rate worked out at 98.15% and the concentration for half-maximal inhibition (IC50) is 4.4 ± 0.04 mM. As for `C[C@H]1O[C@H](O[C@H]2[C@H](O)[C@@H](O)[C@@H](O[C@H]3[C@H](O)[C@@H](O)C(O)O[C@@H]3CO)O[C@@H]2CO)[C@H](O)[C@@H](O)[C@@H]1N[C@H]1C=C(CO)[C@@H](O)[C@H](O)[C@H]1O` (stereo partly drawn) [acarbose], in data set [3], the Adverse effects result was “flatulence, diarrhea, and abdominal pain”. With “MEIDD [novel umami peptide identified in the hydrolysate of tuna skeletal myosin]”, in data set [4], the “Umami Threshold” value is 0.250 mg/mL.

As for “VAEQE [novel umami peptide identified in the hydrolysate of tuna skeletal myosin]”, the “Umami Threshold” value in data set [4] was 0.125 mg/mL.
